Test results taken from patent US20080221100A1, “SOLUBLE EPOXIDE HYDROLASE INHIBITORS” (Arete Therapeutics, Inc., priority 2006, published 2008).

What was measured:
[1] = test system: soluble epoxide hydrolase (sEH); assay: Fluorescent assay for mouse and human soluble epoxide hydrolase (CMNPC substrate); assay type: biochemical, mouse or human, not specified
Excerpt: Fluorescent Assay for Mouse and Human Soluble Epoxide Hydrolase Recombinant mouse sEH (MsEH) and human sEH (HsEH) were produced in a baculovirus expression system as previously reported. Grant et al., J. Biol. Chem., 268:17628-17633 (1993); Beetham et al., Arch. Biochem. Biophys., 305:197-201 (1993). The expressed proteins were purified from cell lysate by affinity chromatography. Wixtrom et al., Anal. Biochem., 169:71-80 (1988). Protein concentration was quantified using the Pierce BCA assay using bovine serum albumin as the calibrating standard. […] They contained no detectable esterase or glutathione transferase activity which can interfere with the assay. The assay was also evaluated with similar results in crude cell lysates or homogenate of tissues. The IC50s for each inhibitor were determined according to the following procedure: Substrate: [drawing 155] […] Jones P. D. et al.; Analytical Biochemistry 2005; 343: pp. 66-75) Solutions: Bis/Tris HCl 25 mM pH 7.0 containing 0.1 mg/mL of BSA (buffer […] at 0.25 mM in DMSO. Mother solution of enzyme in buffer A (Mouse sEH at 6 μg/mL and Human sEH at 5 μg/mL). Inhibitor dissolved in DMSO at the appropriate concentration. Protocol: In a black 96 well plate, fill all the wells with 150 μL of buffer A. Add 2 μL of DMSO in well A2 and A3, and then add 2 μL of inhibitor solution in A1 and A4 through A12. Add 150 μL of buffer A in row A, then mix several time and transfer 150 μL to row B. Repeat this operation up to row H. The 150 μL removed from row H is discarded. Add 20 μL of buffer A in column 1 and 2, then add 20 μL of enzyme solution to column 3 to 12. Incubate the plate for 5 minutes in the plate reader at 30° C. During incubation prepare the working solution of substrate by mixing 3.68 mL of buffer A (4×0.920 mL) with 266 μL (2×133 μL) of substrate solution). At t=0, add 30 μL of working substrate solution with multi-channel pipette labeled “Briggs 303” and start the reading ([S]final: 5 μM). Read with ex: 330 nm (20 nm) and em: 465 nm (20 nm) every 30 second for 10 minutes. The velocities are used to analyze and calculate the IC50s.

| SMILES | melting point [°C] | % Inhibition ([1]; Conc 50 nM) [%] | % Inhibition ([1]; Conc 500 nM) [%] | % Inhibition ([1]; Conc 200 nM) [%] | % Inhibition ([1]; Conc 2000 nM) [%] |
| --- | --- | --- | --- | --- | --- |
| O=C(Nc1cccc(F)c1)NC1CCN(S(=O)(=O)c2cccc(C(F)(F)F)c2)CC1 [Compound 28, 1-(3-Fluoro-phenyl)-3-[1-(3-trifluoromethyl-benzenesulfonyl)-piperidin-4-yl]-urea] | 86 to 88 | 94 |  |  |  |
| O=C(Nc1cccc(C(F)(F)F)c1)NC1CCN(S(=O)(=O)c2ccc(Cl)cc2)CC1 [Compound 30, 1-[1-(4-Chloro-benzenesulfonyl)-piperidin-4-yl]-3-(3-trifluoromethyl-phenyl)-urea] | 116 to 118 | 90 |  |  |  |
| CS(=O)(=O)N1CCC(NC(=O)Nc2cccc(F)c2)CC1 [Compound 31, 1-(3-Fluoro-phenyl)-3-(1-methanesulfonyl-piperidin-4-yl)-urea] | 212 to 214 |  | 80 |  |  |
| CC(=O)N1CCC(NC(=O)Nc2cccc(F)c2)CC1 [Compound 32, 1-(1-Acetyl-piperidin-4-yl)-3-(3-fluoro-phenyl)-urea] | 112 to 114 |  | 80 |  |  |
| O=C(Nc1ccc(Cl)cc1)NC1CCN(C(=O)c2ccc(N3CCOCC3)cc2)CC1 [Compound 36, 1-(4-Chlorophenyl)-3-(1-(4-morpholinobenzoyl)piperidin-4-yl)urea] | 303 to 308 | 95 |  |  |  |
| O=C(Nc1ccc(C(F)(F)F)cc1)NC1CCN(C(=O)c2ccc(N3CCOCC3)cc2)CC1 [Compound 37, 1-(1-(4-Morpholinobenzoyl)piperidin-4-yl)-3-(4-(trifluoromethyl)phenyl)urea] | 312 to 315 | 98 |  |  |  |
| CC(C)(C)OC(=O)C(C)(C)Oc1ccc(C(=O)N2CCC(NC(=O)Nc3ccc(C(F)(F)F)cc3)CC2)cc1 [Compound 38, Tert-butyl 2-methyl-2-(4-(4-(3-(4-(trifluoromethyl)phenyl)ureido)piperidine-1-carbonyl)phenoxy)propanoate] | 206 to 208 | 89 |  |  |  |
| Cc1nc(C(=O)N2CCC(NC(=O)Nc3ccc(C(F)(F)F)cc3)CC2)c(C)o1 [Compound 39, 1-(1-(2,5-Dimethyloxazole-4-carbonyl)piperidin-4-yl)-3-(4-(trifluoromethyl)phenyl)urea] | 217 to 219 | 92 |  |  |  |
| CC(C)(Oc1ccc(C(=O)N2CCC(NC(=O)Nc3ccc(C(F)(F)F)cc3)CC2)cc1)C(=O)O [Compound 40, 2-Methyl-2-(4-(4-(3-(4-(trifluoromethyl)phenyl)ureido)piperidine-1-carbonyl)phenoxy)propanoic acid] | 197 to 199 | 68 |  |  |  |
| CC(C)(C)C(=O)N1CCC(NC(=O)Nc2ccc(C(F)(F)F)cc2)CC1 [Compound 41, 1-(1-Pivaloylpiperidin-4-yl)-3-(4-(trifluoromethyl)phenyl)urea] | 263 to 265 | 97 |  |  |  |
| CC(C)(O)CCC(=O)N1CCC(NC(=O)Nc2ccc(C(F)(F)F)cc2)CC1 [Compound 47, 1-(1-(4-hydroxy-4-methylpentanoyl)piperidin-4-yl)-3-(4-(trifluoromethyl)phenyl)urea] | 184 to 186 |  |  | 93 |  |
| O=C(Nc1ccc(C(F)(F)F)cc1)NC1CCN(C(=O)CCO)CC1 [Compound 49, 1-(1-(3-hydroxypropanoyl)piperidin-4-yl)-3-(4-(trifluoromethyl)phenyl)urea] | 158 to 160 |  |  | 90 |  |
| O=C(Nc1ccc(C(F)(F)F)cc1)NC1CCN(S(=O)(=O)CCCO)CC1 [Compound 50, 1-(1-(3-hydroxypropylsulfonyl)piperidin-4-yl)-3-(4-(trifluoromethyl)phenyl)urea] | 200 to 205 |  |  | 98 |  |
| COCC(=O)N1CCC(NC(=O)Nc2ccc(C(F)(F)F)cc2)CC1 [Compound 51, 1-(1-(2-methoxyacetyl)piperidin-4-yl)-3-(4-(trifluoromethyl)phenyl)urea] | 214 to 215 |  |  |  | 100 |
| CC(C)(C)[S+]([O-])N1CCC(NC(=O)Nc2ccc(C(F)(F)F)cc2)CC1 (stereo not drawn) [Compound 52, 1-(1-(tert-butylsulfinyl)piperidin-4-yl)-3-(4-(trifluoromethyl)phenyl)urea] | 229 to 230 |  |  | 94 |  |
| O=C(Nc1ccc(C(F)(F)F)cc1)NC1CCN(C(=O)CCCO)CC1 [Compound 53, 1-(1-(4-hydroxybutanoyl)piperidin-4-yl)-3-(4-(trifluoromethyl)phenyl)urea] | 175 to 182 |  |  | 100 |  |
| CC(C)(C)S(=O)(=O)N1CCC(NC(=O)Nc2ccc(C(F)(F)F)cc2)CC1 [Compound 54, 1-(1-(tert-butylsulfonyl)piperidin-4-yl)-3-(4-(trifluoromethyl)phenyl)urea] | 260 to 261 |  |  | 97 |  |
| O=C(Nc1ccc(C(F)(F)F)cc1)NC1CCN(C(=O)N2CCOCC2)CC1 [Compound 55, 1-(1-(morpholine-4-carbonyl)piperidin-4-yl)-3-(4-(trifluoromethyl)phenyl)urea] | 234 to 236 |  |  |  | 43 |
